Results from US8008292B2, “Condensed benzamide compounds and inhibitors of vanilloid receptor subtype 1 (VR1) activity” (Japan Tobacco Inc., priority 2004, dated 2011).
Where a name gives a salt, the structure may show the parent alone.

Target: T1, human VR1 (Homo sapiens, UniProt Q8NER1)
T1 construct: expressed in transfected cells
Experiment: Inhibition of Ca2+ entry in cells caused by proton, in rat glioma (C6BU1) cells stably expressing human VR1 (Fura 2 fluorescence)
Type: cell-based
Details: inhibition of proton-induced Ca2+ entry
Summary of the method: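 Fura 2-loaded C6BU1 cells in 20 mM MES buffer pH 6.8 with added Ca2+ were preincubated 10 min with compound (final 1 μM to 0.1 nM, 1% DMSO). Proton stimulation brought pH to 5.5. Fluorescence rise was measured, and IC50 was derived from % inhibition versus DMSO control.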

T1 sequence (Q8NER1 whole entry): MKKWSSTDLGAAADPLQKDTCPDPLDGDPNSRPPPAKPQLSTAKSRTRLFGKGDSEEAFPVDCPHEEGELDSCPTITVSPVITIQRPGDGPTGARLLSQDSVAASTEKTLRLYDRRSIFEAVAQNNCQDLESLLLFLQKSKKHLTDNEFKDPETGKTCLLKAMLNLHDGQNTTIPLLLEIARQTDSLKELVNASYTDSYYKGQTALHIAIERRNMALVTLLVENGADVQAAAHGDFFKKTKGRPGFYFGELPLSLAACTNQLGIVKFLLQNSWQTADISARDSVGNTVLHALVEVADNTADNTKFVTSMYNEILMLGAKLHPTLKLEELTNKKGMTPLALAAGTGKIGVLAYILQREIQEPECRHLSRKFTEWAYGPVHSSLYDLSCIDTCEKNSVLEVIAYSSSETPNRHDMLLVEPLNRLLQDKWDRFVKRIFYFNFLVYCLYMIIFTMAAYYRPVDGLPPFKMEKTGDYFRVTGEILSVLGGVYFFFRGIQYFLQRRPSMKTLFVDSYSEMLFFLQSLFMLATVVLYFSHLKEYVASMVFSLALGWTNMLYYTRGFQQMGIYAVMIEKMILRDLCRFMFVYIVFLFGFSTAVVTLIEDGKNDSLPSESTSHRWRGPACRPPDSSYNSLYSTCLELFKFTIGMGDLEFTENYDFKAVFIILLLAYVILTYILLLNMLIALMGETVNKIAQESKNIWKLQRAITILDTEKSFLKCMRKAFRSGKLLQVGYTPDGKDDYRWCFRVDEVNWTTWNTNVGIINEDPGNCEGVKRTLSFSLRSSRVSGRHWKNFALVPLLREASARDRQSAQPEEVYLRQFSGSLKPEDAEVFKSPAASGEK

An IC50 of under 100 nM was found for O=C(Nc1ccc(N2CCCCC2)c(F)c1)c1cccc2c1OC[C@H](CO)N2c1ncccc1Cl [Example 4-10] in this work.

An IC50 of under 100 nM was found for O=C(Nc1ccc(OC(F)(F)F)c(Cl)c1)c1cccc2c1OC[C@H](CO)N2c1ncccc1Cl [Example 4-11] in this work.

An IC50 of under 100 nM was found for CN(C)c1ccc(NC(=O)c2cccc3c2OC[C@H](CO)N3c2ncccc2Cl)cc1F [Example 4-12] in this work.

An IC50 of under 100 nM was found for Cc1ccc(NC(=O)c2cccc3c2OC[C@H](CO)N3c2ncccc2Cl)cc1F [Example 4-13] in this work.

An IC50 of under 100 nM was found for CC(C)(C)[C@H]1CC[C@H](NC(=O)c2cccc3c2OC[C@H](CO)N3c2ncccc2Cl)CC1 [Example 4-14] in this work.

An IC50 of under 100 nM was found for CC(C)(C)COc1ccc(NC(=O)c2cccc3c2OC[C@H](CO)N3c2ncccc2Cl)cc1 [Example 4-15] in this work.

An IC50 of under 100 nM was found for O=C(Nc1ccc(Cl)cc1)c1cccc2c1OC[C@H](CO)N2c1ncccc1Cl [Example 4-16] in this work.

An IC50 of under 100 nM was found for CC(C)c1ccc(NC(=O)c2cccc3c2OC[C@H](CO)N3c2ncccc2Cl)cc1 [Example 4-17] in this work.

An IC50 of under 100 nM was found for O=C(Nc1ccc(F)c(C(F)(F)F)c1)c1cccc2c1OC[C@H](CO)N2c1ncccc1Cl [Example 4-18] in this work.

An IC50 of under 100 nM was found for O=C(Nc1ccc(Br)c(Cl)c1)c1cccc2c1OC[C@H](CO)N2c1ncccc1Cl [Example 4-19] in this work.

An IC50 of under 100 nM was found for CN(C)c1ccc(NC(=O)c2cccc3c2OC[C@H](CO)N3c2ncccc2Cl)cc1C(F)(F)F [Example 4-20] in this work.

An IC50 of under 100 nM was found for CC(C)Oc1ccc(NC(=O)c2cccc3c2OC[C@H](CO)N3c2ncccc2Cl)cc1C(F)(F)F [Example 4-21] in this work.

An IC50 of under 100 nM was found for O=C(Nc1ccc(N2CCCCC2)c(C(F)(F)F)c1)c1cccc2c1OC[C@H](CO)N2c1ncccc1Cl [Example 4-22] in this work.

An IC50 of under 100 nM was found for CCOc1ccc(NC(=O)c2cccc3c2OC[C@H](CO)N3c2ncccc2Cl)cc1F [Example 4-23] in this work.

An IC50 of under 100 nM was found for COc1ccc(NC(=O)c2cccc3c2OC[C@H](CO)N3c2ncccc2Cl)cc1C(F)(F)F [Example 4-24] in this work.

An IC50 of under 100 nM was found for COc1cnc(N2c3cccc(C(=O)Nc4ccc(C(F)(F)F)cc4)c3OC[C@@H]2CO)c(Cl)c1 [Example 4-25] in this work.

An IC50 of under 100 nM was found for COc1cnc(N2c3cccc(C(=O)Nc4ccc(OC(F)(F)F)cc4)c3OC[C@@H]2CO)c(Cl)c1 [Example 4-26] in this work.

An IC50 of under 100 nM was found for Cc1ccc(N2c3cccc(C(=O)Nc4ccc(C(F)(F)F)nc4)c3OC[C@@H]2CO)nc1 [Example 4-27] in this work.

An IC50 of under 100 nM was found for COc1ccc(NC(=O)c2cccc3c2OC[C@H](CO)N3c2ccc(C)cn2)cc1C(F)(F)F [Example 4-28] in this work.

An IC50 of under 100 nM was found for Cc1ccc(N2c3cccc(C(=O)Nc4ccc(N5CCOCC5)c(C(F)(F)F)c4)c3OC[C@@H]2CO)nc1 [Example 4-29] in this work.

An IC50 of under 100 nM was found for Cc1ccc(N2c3cccc(C(=O)Nc4ccc(C(F)(F)F)c(F)c4)c3OC[C@@H]2CO)nc1 [Example 4-30] in this work.

An IC50 of under 100 nM was found for Cc1ccc(N2c3cccc(C(=O)Nc4ccc(OC(F)(F)F)c(Cl)c4)c3OC[C@@H]2CO)nc1 [Example 4-31] in this work.

An IC50 of under 100 nM was found for Cc1ccc(N2c3cccc(C(=O)Nc4ccc(Cl)c(Cl)c4)c3OC[C@@H]2CO)nc1 [Example 4-32] in this work.

An IC50 of under 100 nM was found for CC(C)COc1ccc(NC(=O)c2cccc3c2OC[C@H](CO)N3c2ncccc2Cl)cc1C(F)(F)F [Example 4-33] in this work.

An IC50 of under 100 nM was found for O=C(Nc1ccc(Cl)c(Cl)c1)c1cccc2c1OC[C@H](CO)N2c1ncccc1Cl [Example 4-34] in this work.

An IC50 of under 100 nM was found for O=C(Nc1ccc(Cl)c(C(F)(F)F)c1)c1cccc2c1OC[C@H](CO)N2c1ncccc1Cl [Example 4-35] in this work.

An IC50 of under 100 nM was found for O=C(Nc1ccc(Br)c(F)c1)c1cccc2c1OC[C@H](CO)N2c1ncccc1Cl [Example 4-36] in this work.

An IC50 of under 100 nM was found for Cc1ccc(N2c3cccc(C(=O)Nc4ccc(Cl)c(C(F)(F)F)c4)c3OC[C@@H]2CO)nc1 [Example 4-37] in this work.

An IC50 of under 100 nM was found for Cc1ccc(N2c3cccc(C(=O)Nc4ccc(OC(C)C)c(C(F)(F)F)c4)c3OC[C@@H]2CO)nc1 [Example 4-38] in this work.

An IC50 of under 100 nM was found for O=C(Nc1ccc(N2CCOCC2)c(C(F)(F)F)c1)c1cccc2c1OC[C@H](CO)N2c1ncccc1Cl [Example 4-39] in this work.

An IC50 of under 100 nM was found for Cc1ccc(N2c3cccc(C(=O)Nc4ccc(C(F)(F)F)cc4Cl)c3OC[C@@H]2CO)nc1 [Example 4-40] in this work.

An IC50 of under 100 nM was found for Cc1cccnc1N1c2cccc(C(=O)Nc3ccc(OC(F)(F)F)cc3)c2OC[C@@H]1CO [Example 4-41] in this work.

An IC50 of under 100 nM was found for Cc1cccnc1N1c2cccc(C(=O)Nc3ccc(C(F)(F)F)cc3)c2OC[C@@H]1CO [Example 4-42] in this work.

An IC50 of under 100 nM was found for Cc1cccnc1N1c2cccc(C(=O)Nc3ccc(OC(C)(C)C)c(F)c3)c2OC[C@@H]1CO [Example 4-43] in this work.

An IC50 of under 100 nM was found for Cc1cccnc1N1c2cccc(C(=O)Nc3ccc(OCC(C)C)c(F)c3)c2OC[C@@H]1CO [Example 4-44] in this work.

An IC50 of under 100 nM was found for Cc1ccc(N2c3cccc(C(=O)Nc4ccc(OCC(C)C)c(C(F)(F)F)c4)c3OC[C@@H]2CO)nc1 [Example 4-45] in this work.

An IC50 of under 100 nM was found for Cc1ccc(N2c3cccc(C(=O)Nc4ccc(OC(C)C)c(F)c4)c3OC[C@@H]2CO)nc1 [Example 4-46] in this work.

An IC50 of under 100 nM was found for Cc1ccc(N2c3cccc(C(=O)Nc4ccc(N5CCOCC5)c(F)c4)c3OC[C@@H]2CO)nc1 [Example 4-47] in this work.

An IC50 of under 100 nM was found for Cc1ccc(N2c3cccc(C(=O)Nc4ccc(Cl)cc4)c3OC[C@@H]2CO)nc1 [Example 4-48] in this work.

An IC50 of under 100 nM was found for Cc1ccc(N2c3cccc(C(=O)Nc4ccc(OC(C)(C)C)c(F)c4)c3OC[C@@H]2CO)nc1 [Example 4-50] in this work.

An IC50 of under 100 nM was found for Cc1ccc(N2c3cccc(C(=O)Nc4ccc(Br)c(F)c4)c3OC[C@@H]2CO)nc1 [Example 4-51] in this work.

An IC50 of under 100 nM was found for O=C(Nc1ccc(OC(F)(F)F)cc1)c1cccc2c1OCC(CO)N2c1ncccc1Cl (centres unmarked) [Example 4-52] in this work.

An IC50 of under 100 nM was found for O=C(Nc1ccc(C(F)(F)F)c(F)c1)c1cccc2c1OC[C@H](CO)N2c1ncccc1Cl [Example 4-53] in this work.

An IC50 of under 100 nM was found for Cc1ccc(N2c3cccc(C(=O)Nc4ccc(OCC(C)C)c(F)c4)c3OC[C@@H]2CO)nc1 [Example 4-54] in this work.

An IC50 of under 100 nM was found for Cc1ccc(N2c3cccc(C(=O)Nc4ccc(F)c(C(F)(F)F)c4)c3OC[C@@H]2CO)nc1 [Example 4-55] in this work.

An IC50 of under 100 nM was found for CC(O)C1COc2c(C(=O)Nc3ccc(OC(F)(F)F)cc3)cccc2N1c1ncccc1Cl (centres unmarked) [Example 4-56] in this work.

An IC50 of 100 to 1000 nM was found for CC(C)(C)c1ccc(NC(=O)c2cccc3c2OCCN3c2cnccn2)cc1 [Example 5-1, N-(4-tert-butylphenyl)-4-(pyrazine-2-yl)-3,4-dihydro-2H-benzo[1,4]oxazine-8-carboxamide] in this work.

An IC50 of 100 to 1000 nM was found for CCc1cnc(N2CCOc3c(C(=O)Nc4ccc(Cl)cc4)cccc32)nc1 [Example 5-2, N-(4-chlorophenyl)-4-(5-ethylpyrimidin-2-yl)-3,4-dihydro-2H-benzo[1,4]oxazine-8-carboxamide] in this work.

An IC50 of under 100 nM was found for O=C(Nc1ccc(C(F)(F)F)cc1)c1cccc2c1OCCN2c1ccc(Cl)nn1 [Example 5-4, 4-(6-chloropyridazine-3-yl)-N-(4-trifluoromethylphenyl)-3,4-dihydro-2H-benzo[1,4]oxazine-8-carboxamide] in this work.

An IC50 of 100 to 1000 nM was found for Cc1csc(N2CCOc3c(C(=O)Nc4ccc(OC(F)(F)F)cc4)cccc32)n1 [Example 5-5, 4-(4-methylthiazol-2-yl)-N-(4-trifluoromethoxyphenyl)-3,4-dihydro-2H-benzo[1,4]oxazine-8-carboxamide] in this work.

An IC50 of under 100 nM was found for Cc1cnc(N2CCOc3c(C(=O)Nc4ccc(OC(F)(F)F)cc4)cccc32)s1 [Example 5-6, 4-(5-methylthiazol-2-yl)-N-(4-trifluoromethoxyphenyl)-3,4-dihydro-2H-benzo[1,4]oxazine-8-carboxamide] in this work.

An IC50 of under 100 nM was found for Cc1cnc(N2c3cccc(C(=O)Nc4ccc(OC(F)(F)F)cc4)c3OC[C@@H]2CO)s1 [Example 6-1, (S)-3-hydroxymethyl-4-(5-methylthiazol-2-yl)-N-(4-trifluoromethoxyphenyl)-3,4-dihydro-2H-benzo[1,4]oxazine-8-carboxamide] in this work.

An IC50 of under 100 nM was found for Cc1cnc(N2c3cccc(C(=O)Nc4ccc(C(F)(F)F)cc4)c3OC[C@@H]2CO)s1 [Example 6-2, (S)-3-hydroxymethyl-4-(5-methylthiazol-2-yl)-N-(4-trifluoromethylphenyl)-3,4-dihydro-2H-benzo[1,4]oxazine-8-carboxamide] in this work.

An IC50 of under 100 nM was found for Cc1cnc(N2c3cccc(C(=O)Nc4ccc(Cl)c(Cl)c4)c3OC[C@@H]2CO)s1 [Example 6-3, (S)-N-(3,4-dichlorophenyl)-3-hydroxymethyl-4-(5-methylthiazol-2-yl)-3,4-dihydro-2H-benzo[1,4]oxazine-8-carboxamide hydrochloride] in this work.

An IC50 of under 100 nM was found for Cc1cnc(N2c3cccc(C(=O)Nc4ccc(OC(C)C)c(F)c4)c3OC[C@@H]2CO)s1 [Example 6-4] in this work.

An IC50 of under 100 nM was found for Cc1cnc(N2c3cccc(C(=O)Nc4ccc(OC(C)(C)C)c(F)c4)c3OC[C@@H]2CO)s1 [Example 6-5] in this work.

An IC50 of under 100 nM was found for Cc1cnc(N2c3cccc(C(=O)Nc4ccc(OCC(C)C)c(F)c4)c3OC[C@@H]2CO)s1 [Example 6-6] in this work.

An IC50 of under 100 nM was found for Cc1cnc(N2c3cccc(C(=O)Nc4ccc(Br)c(F)c4)c3OC[C@@H]2CO)s1 [Example 6-7] in this work.

An IC50 of under 100 nM was found for Cc1cnc(N2c3cccc(C(=O)Nc4ccc(F)c(C(F)(F)F)c4)c3OC[C@@H]2CO)s1 [Example 6-8] in this work.

An IC50 of under 100 nM was found for Cc1cnc(N2c3cccc(C(=O)Nc4ccc(N5CCOCC5)c(F)c4)c3OC[C@@H]2CO)s1 [Example 6-9] in this work.

An IC50 of under 100 nM was found for Cc1cnc(N2c3cccc(C(=O)Nc4ccc(C(F)(F)F)nc4)c3OC[C@@H]2CO)s1 [Example 6-10] in this work.

An IC50 of under 100 nM was found for Cc1cnc(N2c3cccc(C(=O)Nc4ccc(OC(F)(F)F)cc4)c3OC[C@@H]2CO)o1 [Example 6-11, (S)-3-hydroxymethyl-4-(5-methyloxazol-2-yl)-N-(4-trifluoromethoxyphenyl)-3,4-dihydro-2H-benzo[1,4]oxazine-8-carboxamide] in this work.
